Laboratory results published in US7833967B2, “Synthetic antimicrobial polypeptides” (priority 2003, dated 2010).

System: E. coli TOP10
Assay: Suicide expression system (SES) growth inhibition
Type: cell-based
[1] = Table 5, mixed-motif library, re-tested in the Bioscreen C
[2] = Table 3, variants of SEQ ID NO:5, re-tested in the Bioscreen C
[3] = Table 4, variants of SEQ ID NO:10, re-tested in the Bioscreen C
[4] = Table 1, 0.1% inducer (arabinose), pBAD/gIIIA in E. coli TOP10, Bioscreen C 37° C., end point OD450 vs control vector

Row | Substance | Growth inhibition (%) [1] [%] | Growth inhibition (%) [3] [%] | further results
1 | 282 (RRRPPRLPRPLPLRPPPRLPHPIPFRP; Synthetic antimicrobial peptide) [compound 282] | 95 |  | 
2 | 296 (RRRPPRLPRPVPFRPPPRVPRPIPFRP; Synthetic antimicrobial peptide) [compound 296] | 88 |  | 
3 | 40 (RRRPRPFPRPFPRPFPRPVPRPLPRPI; Synthetic antimicrobial peptide) [compound 40] |  |  | Growth inhibition (%) [2]: 69%
4 | 317 (RRRTRHVFARPVPVRPPPRVPRPFPVRP; Synthetic antimicrobial peptide) [compound 317] | 95 |  | 
5 | 302 (RRRPPRLPRPVPLRPPPRFPRPVPVRP; Synthetic antimicrobial peptide) [compound 302] | 82 |  | 
6 | 209 (RRRPPRIPRPFPIRPPPRFPRPIPFRP; Synthetic antimicrobial peptide) [compound 209] | 78 |  | 
7 | 117 (RRRPIRPPIRPPFRPPFRPPIRPPFRP; Synthetic antimicrobial peptide) [compound 117] |  | 77 | 
8 | 306 (RRRPPRLPRPVPVRPPPRFPRPVPVRP; Synthetic antimicrobial peptide) [compound 306] | 90 |  | 
9 | 43 (RRRPRPFPRPFPRPIPRPFPRPVPRPV; Synthetic antimicrobial peptide) [compound 43] |  |  | Growth inhibition (%) [2]: 68%
10 | 287 (RRRPPRLPRPLPVRPPPRLPRPIPIRP; Synthetic antimicrobial peptide) [compound 287] | 95 |  | 
11 | 8 (RRRFPRPFPRPFPRPFPRPFPRPFPRP; Synthetic antimicrobial peptide) [compound 8] |  |  | Growth inhibition (%) [4]: 38%
12 | 178 (RRRPLRPPFRPPVRPPFRPPFRPPFRP; Synthetic antimicrobial peptide) [compound 178] |  | 81 | 
13 | 28 (RRRPRPFPRPFPRPFPRPFPRPFPRPF; Synthetic antimicrobial peptide) [compound 28] |  |  | Growth inhibition (%) [2]: 57%
14 | 162 (RRRPFRPPIRPPFRPPFRPPLRPPLRP; Synthetic antimicrobial peptide) [compound 162] |  | 68 | 
15 | 151 (RRRPLRPPVRPPLRPPVRPPFRPPFRP; Synthetic antimicrobial peptide) [compound 151] |  | 68 | 
16 | 299 (RRRPPRLPRPVPIRPPPRFPRPIPFRP; Synthetic antimicrobial peptide) [compound 299] | 96 |  | 
17 | 261 (RRRPPRLPRPIPVRPPPRIPRPVPFRP; Synthetic antimicrobial peptide) [compound 261] | 92 |  | 
18 | 118 (RRRPFRPPFRPPLRPPFRPPVRPPLRP; Synthetic antimicrobial peptide) [compound 118] |  | 73 | 
19 | 206 (RRRPFRPPFRPPFRPPFRPPFRPPFRP; Synthetic antimicrobial peptide) [compound 206] |  | 77 | 
20 | 95 (RRRPFRPPLRPPLRPPIRPPVRPPFRP; Synthetic antimicrobial peptide) [compound 95] |  | 80 | 
21 | 145 (RRRPLRPPVRPPFRPPFRPPLRPPFRP; Synthetic antimicrobial peptide) [compound 145] |  | 59 | 
22 | 231 (RRRPPRLPRPFPLRPPPRLPRPFPFRP; Synthetic antimicrobial peptide) [compound 231] | 98 |  | 

Row | Substance | Growth inhibition (%) [1] [%] | Growth inhibition (%) [3] [%] | further results
23 | 42 (RRRPRPFPRPFPRPIPRPFPRPLPRPI; Synthetic antimicrobial peptide) [compound 42] |  |  | Growth inhibition (%) [2]: 66%
24 | 189 (RRRPFRPPFRPPIRPPVRPPIRPPFRP; Synthetic antimicrobial peptide) [compound 189] |  | 79 | 
25 | 233 (RRRPPRLPRPFPLRPPPRLPRPLPVRP; Synthetic antimicrobial peptide) [compound 233] | 91 |  | 
26 | 59 (RRRPRPIPRPFPRPIPRPVPRPFPRPF; Synthetic antimicrobial peptide) [compound 59] |  |  | Growth inhibition (%) [2]: 75%
27 | 300 (RRRPPRLPRPVPIRPPPRIPRPIPFRP; Synthetic antimicrobial peptide) [compound 300] | 92 |  | 
28 | 249 (RRRPPRLPRPFPVRPPPRVPRPVPIRP; Synthetic antimicrobial peptide) [compound 249] | 93 |  | 
29 | 181 (RRRPIRPPIRPPFRPPFRPPFRPPFRP; Synthetic antimicrobial peptide) [compound 181] |  | 83 | 
30 | 116 (RRRPIRPPFRPPFRPPVRPPIRPPFRP; Synthetic antimicrobial peptide) [compound 116] |  | 69 | 
31 | 201 (RRRPFRPPIRPPIRPPFRPPIRPPFRP; Synthetic antimicrobial peptide) [compound 201] |  | 78 | 
32 | 198 (RRRPFRPPFRPPFRPPFRPPFRPPFRP; Synthetic antimicrobial peptide) [compound 198] |  | 91 | 
33 | 30 (RRRPRPFPPPFPRPIPRPFPRPFPRPL; Synthetic antimicrobial peptide) [compound 30] |  |  | Growth inhibition (%) [2]: 61%
34 | 7 (RRRPFPRPFPRPFPRPFPRPFPRPFPR; Synthetic antimicrobial peptide) [compound 7] |  |  | Growth inhibition (%) [4]: 39%
35 | 139 (RRRPFRPPFRPPIRPPFRPPIRPPVRP; Synthetic antimicrobial peptide) [compound 139] |  | 67 | 
36 | 290 (RRRPPRLPRPLPVRPPPRVPRPLPLRP; Synthetic antimicrobial peptide) [compound 290] | 94 |  | 
37 | 34 (RRRPRPFPRPFPRPFPRPFPRPFPRPL; Synthetic antimicrobial peptide) [compound 34] |  |  | Growth inhibition (%) [2]: 74%
38 | 258 (RRRPPRLPRPIPVRPPPRFPRPIPFRP; Synthetic antimicrobial peptide) [compound 258] | 92 |  | 
39 | 253 (RRRPPRLPRPIPFRPPPRLPRPIPIRP; Synthetic antimicrobial peptide) [compound 253] | 91 |  | 
40 | 156 (RRRPFRPPLRPPFRPPFRPPIRPPFRP; Synthetic antimicrobial peptide) [compound 156] |  | 67 | 
41 | 283 (RRRPPRLPRPLPVRPPPRFPRPVPFRP; Synthetic antimicrobial peptide) [compound 283] | 95 |  | 
42 | 22 (RRRPPRLPPRFPPRFPPRVPPRLPPRF; Synthetic antimicrobial peptide) [compound 22] |  |  | Growth inhibition (%) (Table 2, variants of SEQ ID NO:1, re-tested in the Bioscreen C): 81%
43 | 152 (RRRPFRPPFRPPFRPPFRPPVRPPIRP; Synthetic antimicrobial peptide) [compound 152] |  | 75 | 
44 | 289 (RRRPPRLPRPLPVRPPPRVPRPFPVRP; Synthetic antimicrobial peptide) [compound 289] | 95 |  | 
